Measured values published in patent US8148373B2, “Compounds” (AstraZeneca AB, priority 2008, dated 2012).
Counter-ions that a name gives are not always drawn.

How the values were obtained:
[1] = target: T1, human muscarinic acetylcholine M3 receptor (M3-ACh) (Homo sapiens, UniProt P20309); experiment: Muscarinic 3 Receptor Binding Assay ([3H]NMS competition, SPA); settings: [3H]NMS 0.1 nM, CHO-K1 cell membranes, 16 hours at room temperature; read-out: M3 pIC50 (converted)
T1 construct: expressed in transfected cells; host or cells: CHO-K1 (Chinese Hamster Ovary) cell membranes
Outline: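 Competition SPA binding of 0.1 nM [3H]NMS (quarter Kd) to membranes from CHO-K1 cells expressing human M3, in 20 mM HEPES pH 7.4, 5 mM MgCl2, 1% DMSO. Incubated 16 h at room temperature; non-specific binding with 1 µM atropine. pIC50 from 50% reduction of specific binding.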

[2] = target: T2, Adrenergic β2 (H292 cells) (Homo sapiens, UniProt P07550); experiment: Assay for Adrenergic β2 Mediated cAMP Production (concentration response, AlphaScreen cAMP detection); format: cell-based; settings: for EC50: cAMP production, 60 minutes at room temperature, 300 μM rolipram, read-out: β2 pEC50 (converted); for β2 Intrinsic activity: fraction relative to the maximum activity determined for formoterol
T2 construct: endogenous in cells; host or cells: H292 cells
Outline: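 H292 cells plated overnight, pre-treated with rolipram (300 μM final) 10 min, then compound 60 min at room temperature in HBSS/10 mM HEPES pH7.4/5 mM glucose, 1% DMSO. Lysate cAMP read by AlphaScreen against a cAMP standard curve; 4-parameter fit gives pEC50 and intrinsic activity as fraction of formoterol maximum.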

T2 sequence (P07550 whole entry): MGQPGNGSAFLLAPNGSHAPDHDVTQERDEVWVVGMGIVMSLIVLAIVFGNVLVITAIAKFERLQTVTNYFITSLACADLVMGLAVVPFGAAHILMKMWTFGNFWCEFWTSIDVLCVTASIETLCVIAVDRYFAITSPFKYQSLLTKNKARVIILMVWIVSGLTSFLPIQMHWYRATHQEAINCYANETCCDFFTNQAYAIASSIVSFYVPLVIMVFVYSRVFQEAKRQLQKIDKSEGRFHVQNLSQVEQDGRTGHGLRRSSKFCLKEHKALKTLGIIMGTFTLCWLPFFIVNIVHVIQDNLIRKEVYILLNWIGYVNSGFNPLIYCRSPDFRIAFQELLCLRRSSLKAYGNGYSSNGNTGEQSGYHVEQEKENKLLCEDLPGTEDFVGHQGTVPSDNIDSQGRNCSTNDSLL
T1 sequence (P20309 whole entry): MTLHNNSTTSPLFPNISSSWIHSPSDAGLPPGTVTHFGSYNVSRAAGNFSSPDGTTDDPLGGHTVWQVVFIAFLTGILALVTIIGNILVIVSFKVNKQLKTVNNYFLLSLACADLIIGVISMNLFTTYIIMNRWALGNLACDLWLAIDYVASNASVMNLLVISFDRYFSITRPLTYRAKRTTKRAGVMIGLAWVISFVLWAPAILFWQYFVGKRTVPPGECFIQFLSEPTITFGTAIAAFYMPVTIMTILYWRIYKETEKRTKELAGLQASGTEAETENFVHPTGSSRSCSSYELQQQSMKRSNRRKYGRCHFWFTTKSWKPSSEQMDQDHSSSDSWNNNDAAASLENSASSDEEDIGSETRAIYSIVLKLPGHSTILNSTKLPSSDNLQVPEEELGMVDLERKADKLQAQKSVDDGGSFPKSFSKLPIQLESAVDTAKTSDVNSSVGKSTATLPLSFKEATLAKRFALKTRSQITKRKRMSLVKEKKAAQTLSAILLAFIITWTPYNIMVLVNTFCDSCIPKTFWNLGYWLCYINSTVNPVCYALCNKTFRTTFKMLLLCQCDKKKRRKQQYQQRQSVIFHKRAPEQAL

IC50 [1]	EC50 [2]	β2 Intrinsic activity [2]	SMILES
7.94 nM	316 nM	0.9	CC(C)c1nc(C(=O)N2CCOC3(CCN(CCCCCCC(C)(C)CCNC[C@H](O)c4ccc(O)c5[nH]c(=O)sc45)CC3)C2)cs1 [Example 279, (R)-4-Hydroxy-7-(1-hydroxy-2-(9-(4-(2-isopropylthiazole-4-carbonyl)-1-oxa-4,9-diazaspiro[5.5]undecan-9-yl)-3,3-dimethylnonylamino)ethyl)benzo[d]thiazol-2(3H)-one formate]
63.1 nM	5.01 nM	0.9	COC(=O)c1ccc(C(=O)N2CCOC3(CCN(Cc4cccc(CCNC[C@H](O)c5ccc(O)c6[nH]c(=O)ccc56)c4)CC3)C2)s1 [Example 31, (R)-Methyl 5-(9-(3-(2-(2-hydroxy-2-(8-hydroxy-2-oxo-1,2-dihydroquinolin-5-yl)ethylamino)ethyl)benzyl)-1-oxa-4,9-diazaspiro[5.5]undecane-4-carbonyl)thiophene-2-carboxylate ditrifluoroacetate]
0.1 nM	31.6 nM	0.9	Cc1nc(C(=O)N2CCOC3(CCN(Cc4cccc(CCOCCC(=O)N(CCNC[C@H](O)c5ccc(O)c6[nH]c(=O)sc56)C5CCCCC5)c4)CC3)C2)cs1 [Example 277, (R)—N-Cyclohexyl-N-(2-(2-hydroxy-2-(4-hydroxy-2-oxo-2,3-dihydrobenzo[d]thiazol-7-yl)ethylamino)ethyl)-3-(3-((4-(2-methylthiazole-4-carbonyl)-1-oxa-4,9-diazaspiro[5.5]undecan-9-yl)methyl)phenylethoxy)propanamide ditrifluoroacetate]
0.316 nM	3.98 nM	0.9	Cc1nc(C(=O)N2CCOC3(CCN(Cc4cccc(CCNC[C@H](O)c5ccc(O)c6[nH]c(=O)sc56)c4)CC3)C2)cs1 [Example 6, (R)-4-Hydroxy-7-(1-hydroxy-2-(3-((4-(2-methylthiazole-4-carbonyl)-1-oxa-4,9-diazaspiro[5.5]undecan-9-yl)methyl)phenethylamino)ethyl)benzo[d]thiazol-2(3H)-one ditrifluoroacetate]
0.794 nM	31.6 nM	0.8	Cc1ccc(C(=O)N2CCOC3(CCN(CCCCCCCCCNC[C@H](O)c4ccc(O)c5[nH]c(=O)sc45)CC3)C2)s1 [Example 111, (R)-4-Hydroxy-7-(1-hydroxy-2-(9-(4-(5-methylthiophene-2-carbonyl)-1-oxa-4,9-diazaspiro[5.5]undecan-9-yl)nonylamino)ethyl)benzo[d]thiazol-2(3H)-one formate]
0.158 nM	2.51 nM	0.8	CCc1cc(C(=O)N2CCOC3(CCN(Cc4cccc(CCNC[C@H](O)c5ccc(O)c6[nH]c(=O)sc56)c4)CC3)C2)cs1 [Example 86, (R)-7-(2-(3-((4-(5-Ethylthiophene-3-carbonyl)-1-oxa-4,9-diazaspiro[5.5]undecan-9-yl)methyl)phenethylamino)-1-hydroxyethyl)-4-hydroxybenzo[d]thiazol-2(3H)-one ditrifluoroacetate]
12.6 nM	1260 nM	0.7	Cc1nc(C(=O)N2CCOC3(CCN(CCOc4cccc(CNC[C@H](O)c5ccc(O)c6[nH]c(=O)ccc56)c4)CC3)C2)cs1 [Example 94, (R)-8-Hydroxy-5-(1-hydroxy-2-(3-(2-(4-(2-methylthiazole-4-carbonyl)-1-oxa-4,9-diazaspiro[5.5]undecan-9-yl)ethoxy)benzylamino)ethyl)quinolin-2(1H)-one ditrifluoroacetate]
126 nM	6.31 nM	1.1	O=C(c1csc(-c2ccccc2)n1)N1CCOC2(CCN(Cc3cc(F)cc(CCNC[C@H](O)c4ccc(O)c5[nH]c(=O)sc45)c3)CC2)C1 [Example 41, (R)-7-(2-(3-Fluoro-5-((4-(2-phenylthiazole-4-carbonyl)-1-oxa-4,9-diazaspiro[5.5]undecan-9-yl)methyl)phenethylamino)-1-hydroxyethyl)-4-hydroxybenzo[d]thiazol-2(3H)-one ditrifluoroacetate]
1 nM	10 nM	1	CCc1ccc(C(=O)N2CCOC3(CCN(Cc4cccc(CCNC[C@H](O)c5ccc(O)c6[nH]c(=O)ccc56)c4)CC3)C2)s1 [Example 12, (R)-5-(2-(3-((4-(5-Ethylthiophene-2-carbonyl)-1-oxa-4,9-diazaspiro[5.5]undecan-9-yl)methyl)phenethylamino)-1-hydroxyethyl)-8-hydroxyquinolin-2(1H)-one ditrifluoroacetate]
3.16 nM	15.8 nM	0.9	O=C(c1csc(CC(F)(F)F)n1)N1CCOC2(CCN(Cc3cccc(CCNC[C@H](O)c4ccc(O)c5[nH]c(=O)sc45)c3F)CC2)C1 [Example 67, (R)-7-(2-(2-Fluoro-3-((4-(2-(2,2,2-trifluoroethyl)thiazole-4-carbonyl)-1-oxa-4,9-diazaspiro[5.5]undecan-9-yl)methyl)phenethylamino)-1-hydroxyethyl)-4-hydroxybenzo[d]thiazol-2(3H)-one ditrifluoroacetate]
0.2 nM	50.1 nM	0.9	CC(C)c1nc(C(=O)N2CCOC3(CCN(Cc4cccc(OCCNC[C@H](O)c5ccc(O)c6[nH]c(=O)sc56)c4)CC3)C2)cs1 [Example 64, (R)-4-Hydroxy-7-(1-hydroxy-2-(2-(3-((4-(2-isopropylthiazole-4-carbonyl)-1-oxa-4,9-diazaspiro[5.5]undecan-9-yl)methyl)phenoxy)ethylamino)ethyl)benzo[d]thiazol-2(3H)-one ditrifluoroacetate]
0.794 nM	5.01 nM	1.2	CC(CCCCCCCCN1CCC2(CC1)CN(C(=O)c1csc(C(C)C)n1)CCO2)NC[C@H](O)c1ccc(O)c2[nH]c(=O)sc12 (stereo partly drawn) [Example 280, (R)-4-Hydroxy-7-(1-hydroxy-2-(10-(4-(2-isopropylthiazole-4-carbonyl)-1-oxa-4,9-diazaspiro[5.5]undecan-9-yl)decan-2-ylamino)ethyl)benzo[d]thiazol-2(3H)-one formate]
12.6 nM	6.31 nM	1	Cc1ccc(C(=O)N2CCOC3(CN(Cc4cccc(CCNC[C@H](O)c5ccc(O)c6[nH]c(=O)sc56)c4)C3)C2)s1 [Example 33, (R)-4-Hydroxy-7-(1-hydroxy-2-(3-((8-(5-methylthiophene-2-carbonyl)-5-oxa-2,8-diazaspiro[3.5]nonan-2-yl)methyl)phenethylamino)ethyl)benzo[d]thiazol-2(3H)-one ditrifluoroacetate]
316 nM	63.1 nM	0.9	CC(C)c1ncc(C(=O)N2CCOC3(CCN(CCOc4ccc(CNC[C@H](O)c5ccc(O)c6[nH]c(=O)sc56)cc4)CC3)C2)s1 [Example 114, (R)-4-Hydroxy-7-(1-hydroxy-2-(4-(2-(4-(2-isopropylthiazole-5-carbonyl)-1-oxa-4,9-diazaspiro[5.5]undecan-9-yl)ethoxy)benzylamino)ethyl)benzo[d]thiazol-2(3H)-one ditrifluoracetate]
3.98 nM	126 nM	0.9	CC(C)c1nc(C(=O)N2CCOC3(CCN(CCOc4ccc(CNC[C@H](O)c5ccc(O)c6[nH]c(=O)sc56)cc4)CC3)C2)cs1 [Example 108, (R)-4-Hydroxy-7-(1-hydroxy-2-(4-(2-(4-(2-isopropylthiazole-4-carbonyl)-1-oxa-4,9-diazaspiro[5.5]undecan-9-yl)ethoxy)benzylamino)ethyl)benzo[d]thiazol-2(3H)-one formate]
3.98 nM	1.58 nM	1	Cc1ccc(C(=O)N2CCOC3(CCN(Cc4cc(CCNC[C@H](O)c5ccc(O)c6[nH]c(=O)sc56)ccc4F)CC3)C2)s1 [Example 29, (R)-7-(2-(4-Fluoro-3-((4-(5-methylthiophene-2-carbonyl)-1-oxa-4,9-diazaspiro[5.5]undecan-9-yl)methyl)phenethylamino)-1-hydroxyethyl)-4-hydroxybenzo[d]thiazol-2(3H)-one ditrifluoroacetate]
1.58 nM	7.94 nM	0.8	CCc1cc(C(=O)N2CCOC3(CCN(Cc4ccc(F)c(CCNC[C@H](O)c5ccc(O)c6[nH]c(=O)sc56)c4)CC3)C2)cs1 [Example 99, (R)-7-(2-(5-((4-(5-Ethylthiophene-3-carbonyl)-1-oxa-4,9-diazaspiro[5.5]undecan-9-yl)methyl)-2-fluorophenethylamino)-1-hydroxyethyl)-4-hydroxybenzo[d]thiazol-2(3H)-one ditrifluoroacetate]

SMILES	IC50 [1]	EC50 [2]	β2 Intrinsic activity [2]
O=C(c1csc(C(F)(F)F)n1)N1CCOC2(CCN(Cc3cccc(CCNC[C@H](O)c4ccc(O)c5[nH]c(=O)sc45)c3)CC2)C1 [Example 26, (R)-4-Hydroxy-7-(1-hydroxy-2-(3-((4-(2-(trifluoromethyl)thiazole-4-carbonyl)-1-oxa-4,9-diazaspiro[5.5]undecan-9-yl)methyl)phenethylamino)ethyl)benzo[d]thiazol-2(3H)-one ditrifluoroacetate]	0.631 nM	12.6 nM	0.8
